Here are results for seven compounds from article PMC4783973, “Synthetic Human TLR9-LRR11 Peptide Attenuates TLR9 Signaling by Binding to and thus Decreasing Internalization of CpG Oligodeoxynucleotides” (International Journal of Molecular Sciences, 2016).

Where two headings read alike, the source gives them in different places.

The subject of series [1] is RAW264.7 cells. Briefly: competitive internalization experiment with non-labeled ODN2006, confocal. As to conditions: SP 1.5 μM, FAM-2006 1.5 μM, 30 min, n = 100. The format is cell-based. The procedure:
However, the results could not exclude the possibility that SP might act on FAM not ODN2006 itself. Therefore, a competitive internalization experiment using non-labeled ODN2006 was performed. Non-labeled ODN2006 and FAM-2006 have same ability to bind SP, but FAM had no such ability. If SP specifically acted on ODN2006, non-labeled ODN2006 might increase FAM-2006 internalization, and the intracellular fluorescence intensity would increase. […] Therefore, FAM-2006 could completely enter the cells, resulting in a subsequent increase in intracellular fluorescence.
Figure 7 Non-labeled ODN2006 restored internalization of FAM-labeled ODN2006 preincubated with synthetic peptide (SP) (Scale bar = 20 μm). […] The intracellular FAM-2006 (green) (A), mean fluorescence intensity (MFI) values (B) and the percentages of cells with FAM-2006 dots (green fluorescence) (C) were observed as described in Figure 5 (n = 100). […]
RAW264.7 cells (1.0 × 10^6 cells) were grown on 2-cm glass bottom dishes for 4 h, and supernatants were replaced with 1 mL of serum-free DMEM medium containing FAM-2006 (1.5 μM) that had been pre-incubated with SP (0, 0.5, 1.5 or 4.5 μM) at 37 °C for 15 min. […] The intracellular FAM-2006 (green fluorescence) was observed using a laser confocal microscope. Mean fluorescence intensity (MFI) values were calculated by the ZEN lite 2012 software.

The subject of another series is IκBα. Briefly: IκBα degradation and phosphorylation in RAW264.7 cells (western blotting). The settings on record: ODN2006 1.5 μM; 4 h. Type of series: cell-based. As to the method:
Figure 4 Synthetic peptide (SP) decreased the phosphorylation of IκBα and ERK1/2 in RAW264.7 cells treated with CpG oligodeoxynucleotides (CpG ODN). RAW264.7 cells (1.0 × 10^7 cells) grown in 10-cm dishes were treated with 1.5 μM of ODN2006 (A) or ODN107 (B) pre-incubated with SP (0, 0.5, 1.5, or 4.5 μM) at 37 °C for 15 min. After incubation for 4 h, cells were harvested to extract total protein; and the protein expressions of IκBα, phosphorylated (p)-IκBα, ERK1/2 and p-ERK1/2 were detected by western blotting. Data from one of three independent experiments are shown.
(§1) The RAW264.7 cell line was purchased from American Type Culture Collection (ATCC, Manassas, VA, USA). Cells were cultured in DMEM (high glucose) medium containing 10% FCS in a 37 °C humidified atmosphere with 5% CO2. Cells diluted with 0.4% trypan blue in phosphate-buffered saline (PBS, 0.1 mM, pH 7.2–7.4) were counted using a hemocytometer.
RAW264.7cells (1.0 × 10^7 cells) were incubated in dishes for 4 h, and the supernatants were replaced with fresh medium containing 1.5 μM of ODN2006 that had been preincubated with 0.5, 1.5 or 4.5 μM of SP for 15 min. Cells were sequentially cultured for another 4 h and then harvested to extract total proteins. Equal amounts of proteins from each treatment were separated by SDS-PAGE, and transferred onto 0.22 μm PVDF membranes (Bio-Rad). […]
For orientation: In western blotting, separated proteins are transferred to a membrane and probed.

Series [2] relates to RAW264.7 cells. As to the kind of experiment: TNF-α and IL-6 release from RAW264.7 cells, both cytokines stated together (ELISA). The format is cell-based, mouse. As to conditions: for effect on TNF-α and IL-6 release (CpG ODN stimulation): CpG ODN 1.5 μM, 6 h, n = 4 (Figure 1). The procedure:
Figure 1 Synthetic peptide (SP) decreased TNF-α and IL-6 release from RAW264.7 cells treated with CpG oligodeoxynucleotides (CpG ODN). RAW264.7 cells (4.0 × 10^5 cells) grown in 48-well plates were treated with 1.5 μM of ODN2006 or ODN107 preincubated with SP (0, 0.5, 1.5, or 4.5 μM) or unrelated peptide (URP) (4.5 μM) at 37 °C for 15 min. After incubation for 6 h, the supernatants were collected to detect TNF-α (A) and IL-6 (B) using enzyme-linked immunosorbent assay (ELISA) kits. Data from one of three independent experiments are shown (n = 4). “*”, p < 0.05 vs. ODN2006 or ODN107; “**”, p < 0.01 vs. ODN2006 or ODN107; “#”, p > 0.05 vs. ODN2006 or ODN107.
(§2) Experiments were performed as described in Figure 1. The concentrations of ODN2006, LPS, PAM3 and SP were 1.5 μM, 20 ng/mL, 5 μg/mL and 1.5 μM, respectively. Data from one of three independent experiments are shown (n = 3).
as §1
(§3) RAW264.7 cells (4.0 × 10^5 cells) were incubated in 48-well plates for 4 h, and supernatants were replaced with 0.4 mL of serum-free DMEM medium containing 1.5 μM of ODN2006 or ODN107, which had been preincubated with 0, 0.5, 1.5 or 4.5 μM of SP or 4.5 μM of URP at 37 °C for 15 min. After incubation for 6 h, the supernatants were collected to detect TNF-α and IL-6 concentrations using corresponding ELISA kits (eBioscience).
(In general: An ELISA detects its analyte on a solid surface through an enzyme-linked reagent.)

For a further series, the system named is NF-κB p65 subunit. Briefly: NF-κB activity assay, p65 subunit in nuclear extract of RAW264.7 cells (Trans^AM ELISA). Type of series: cell-based. As to conditions: CpG ODN 1.5 μM; 4 h; n = 3. As to the method:
Figure 3 Synthetic peptide (SP) inhibited NF-κB activation induced by CpG oligodeoxynucleotides (CpG ODN) in RAW264.7 cells. RAW264.7 cells (5.0 × 10^6 cells) grown in six-well plates were treated with 1.5 μM of ODN2006 (A) or ODN107 (B) preincubated with SP (0, 0.5, 1.5, or 4.5 μM) or unrelated peptide (URP) (4.5 μM) at 37 °C for 15 min. After incubation for 4 h, the cells were collected to extract nuclear proteins. The p65 subunit was detected using enzyme-linked immunosorbent assay (ELISA) kits. Data from one of three independent experiments are shown (n = 3). “*”, p < 0.05 vs. ODN2006 or ODN107; “**”, p < 0.01 vs. ODN2006 or ODN107; “#”, p > 0.05 vs. ODN2006 or ODN107.
as §1
RAW264.7 cells (5.0 × 10^6 cells) were placed in six-well plates for 4 h, and the supernatants were then replaced with fresh medium containing 1.5 μM of ODN2006 or ODN107 that had been preincubated with SP (0, 0.5, 1.5, or 4.5 μM) or URP (4.5 μM) at 37 °C for 15 min. After incubation for 4 h, the cells were collected to extract nuclear proteins. Equal amounts of each sample were used to detect the DNA binding activity of the NF-κB p65 subunit using Trans^AM NF-κB ELISA kits (Active Motif), according to the manufacturer’s instructions.

Series [3] relates to CpG ODN-induced cytokine release. As to conditions: ref [19],[20]; cited from earlier work. The text has this: CpG ODN-induced diseases, such as sepsis and some autoimmune disorders, are triggered by uncontrolled release of proinflammatory cytokines, e.g., TNF-α and IL-6 [18]. […] Herein, we firstly evaluated the inhibitory effect of SP on CpG ODN-induced cytokine release in the cellular tests. Tw ... || NF-κB is one of the most important inflammatory switches that comprise a series of transcription factors that regulate the expressions of various proinflammatory cytokines (IL-1, IL-6, IL-8 and TNF-α). NF-κB activation is depended on the degradation and phosphorylation of IκBα [12].

The conditions of series [4]: cited from earlier work. An excerpt: (§4) CpG ODN must be internalized within cells before activating TLR9 signaling and inducing cytokines release. Thus, interfering with CpG ODN internalization probably leads to reduced activation of TLR9 signaling.
In another series the test system is TLR signaling. The settings on record: inhibitors of clathrin-mediated phagocytosis; ref [24]; cited from earlier work.
Description: as §4

Another series relates to PAM3/TLR1/TLR2. Briefly: PAM3CSK4 (TLR1/2)-induced TNF-α and IL-6 release from RAW264.7 cells (ELISA). The format is cell-based, mouse. The settings on record: PAM3 5 μg/mL; n = 3 (Figure 2). The procedure:
as §2, §1, §3

The test system of a further series is LPS/TLR4. Briefly: LPS (TLR4)-induced TNF-α and IL-6 release from RAW264.7 cells (ELISA). The settings on record: LPS 20 ng/mL; n = 3 (Figure 2). The format is cell-based, mouse. As to the method: as §2, §1, §3

Consider “5′-TCGTCGTTTTGTCGTTTTGTCGTT-3′ [ODN2006]”, for which, in the series on RAW264.7 cells [1] (non-labeled ODN2006 0, 0.5, 1.5 or 4.5 μM, dose-dependent), the “MFI and percentage of cells with green fluorescence (FAM-2006 + SP, competition)” value was “increased the MFI and the percentage of cells with green fluorescence”. Moreover, the “restoration of FAM-2006 internalization (competition)” value in the series on RAW264.7 cells [1] (non-labeled ODN2006 4.5 μM) is “completely restore cell internalization of FAM-2006”. Further, in the series with IκBα, the “levels of IκBα phosphorylation and degradation (CpG ODN stimulation)” value is reported as “significantly increased”. In addition, the “effect on TNF-α and IL-6 release (CpG ODN stimulation)” value in the series with RAW264.7 cells [2] was “significantly increased”. Besides, the “effect on TNF-α and IL-6 release (stimulation)” value (shortened to “effect … (stimulation)”) in the series on RAW264.7 cells [2] (ODN2006 1.5 μM, n = 3 (Figure 2)) was “significantly increased”. For the same compound, the “effect on activation of p65 (CpG ODN stimulation)” value in the series on NF-κB p65 subunit was “significantly increased”.
On to “5′-TGGCGCGGGCGG-3′ (DNA, all phosphorothioate, methylation of C not given here) [ODN107, a stimulatory CpG ODN developed in our laboratory]”, for which the “effect on TNF-α and IL-6 release (CpG ODN stimulation)” value with RAW264.7 cells [2] was “significantly increased”. In addition, in the series with NF-κB p65 subunit, the “effect on activation of p65 (CpG ODN stimulation)” value is recorded as “significantly increased”.
For the compound `CCN(CC)CCCC(C)Nc1ccnc2cc(Cl)ccc12` (stereo not shown) [chloroquine], in series [3], the “effect on CpG ODN-induced cytokine release” value is “inhibitors of CpG ODN-induced cytokine release” and the “effect on proinflammatory cytokines” value is “inhibited proinflammatory cytokines”.
Regarding `O=C(N/N=C/c1ccc(O)c(O)c1)c1cc2ccccc2cc1O` [dynasore], the cell toxicity result in series [4] (ref [24]) is on record as “distinct cell toxicity”. For the same compound, the “effect on TLR signaling” value with TLR signaling is recorded as “significant inhibitory effects on TLR signaling”.
As for `CN(C)c1cccc2c(S(=O)(=O)NCCCCCN)cccc12` [monodansylcadaverine], in series [4], the cell toxicity entry was “distinct cell toxicity”. In addition, the “effect on TLR signaling” value with TLR signaling is recorded as “significant inhibitory effects on TLR signaling”.
As to PAM3CSK4, the “effect … (stimulation)” value with PAM3/TLR1/TLR2 is “significantly increased”.
Consider lipopolysaccharide [LPS], for which the “effect … (stimulation)” value with LPS/TLR4 is “significantly increased”.
